Earlier results, collected in US20140127179A1, “Natural Killer Cell Formulations” (SCIENTIFIC FORMULATIONS, LLC, priority 2012, published 2014).
Where two headings read alike, the source gives them in different places.

Tests used:
NK cell activity [1] = details: combinations of 1 mM thioproline and NAC, 5 μM Vitamin C and vitamin E; all ages studied
[2] = tested on: Natural Killer cells (NKC); set-up: key: +: Increased NK cell activity was shown; ±: mixed results; details: summary of literature studies
cancer cells = tested on: cancer cells; set-up: key: +: Direct Anti-cancer Activity was shown; details: direct anti-cancer activity, summary of literature studies
[3] = tested on: NK cell activity of peripheral mononuclear cells
[4] = tested on: lymphokine-activated killer (LAK) cell; details: PPS, MPS and LEN, the three combined; P<0.01
NK cell activity [5] = details: 7 days after the drug injection
[6] = tested on: NK cell and ADCC activity; details: CLL patients, from 0.01 to 1 microgram/ml
[7] = tested on: interferon-gamma-producing NK cell; details: nutritional intake of 10 mg
3T3-SV40 fibroblasts = details: for fibroblast sensitivity to lytic activity of NKC: in several hours, NAC 10 mM
[8] = tested on: Human promyelocytic leukemia cells HL60; details: HL60 cultured with 30 nM for three years, injected into nu/nu mice
[9] = 42 men, 300 μg of Se
metastases = details: NAC administered with haemin and IL-2
[10] = tested on: transformed and embryonic cells
tumor cells = details: inhibited platelet aggregation
[11] = doses up to 5,000 mg
NK cell function = details: two weeks of high-dose treatment, cancer patients

For `O=C(O)[C@@H]1CSCN1` [thioproline], the NK cell activity (NK cell activity [1]) is listed as “enhancement”.

In the case of `C=C1CC[C@H](O)C/C1=C/C=C1\CCC[C@]2(C)[C@@H]([C@H](C)CCCC(C)C)CC[C@@H]12` [Vitamin D3], the “NKC Activity” value [2] is listed as “+” and the Anti-Cancer (cancer cells) is listed as “+”.

In the case of Lentinan, the “interferon level in the peripheral blood circulation” value ([3]; cancer patients, 12 h following administration) is given as “elevated”, the “NK cell activity of peripheral mononuclear cells” value ([3]; cancer patients, in 48 h) is given as “enhanced” and the “patients with increased NK cell activity of lymphocytes” value ([3]; n=11, i.v. 2 mg, on the following day) is given as “four”. For the same compound, the “reduction of the dose of rIL-2 needed to have the same LAK activity” value [4] was 50%, the “NKC Activity” value [2] was “+” and the NK cell activity (NK cell activity [5]) was “significantly enhanced”. For the same compound, the Anti-Cancer (cancer cells) was “+” and the “enhancement of NK cell and ADCC activity” value [6] was “dose-related increase”.

For `CC(C)=CCC[C@](C)(O)[C@H]1CC[C@]2(C)[C@@H]1[C@H](O)C[C@@H]1[C@@]3(C)CC[C@H](O[C@@H]4O[C@H](CO)[C@@H](O)[C@H](O)[C@H]4O)C(C)(C)[C@@H]3CC[C@]12C` [Ginsenoside Rh2], the “growth of B16 melanoma cells” value (B16 melanoma cells; mouse, in vivo) is given as “inhibits” and the “NK cell activity in spleen cells” value (B16 melanoma cells; tumor-bearing nude mice) is given as “increases”.

In the case of `[Zn]` [Zinc], the “quantity of interferon-gamma-producing NK cell” value [7] is listed as “increases”, the “NKC Activity” value [2] is listed as “+” and the Anti-Cancer (cancer cells) is listed as “+”.

For `O=c1c(-c2ccc(O)cc2)coc2cc(O)cc(O)c12` [Geinstein, Genistein], the “NKC Activity” value [2] is listed as “+”.

In the case of `O=C(O)CCCCC1CCSS1` (stereo not drawn) [ALA, Alpha-Lipoic Acid], the “NKC Activity” value [2] is given as “±” and the “fibroblast sensitivity to lytic activity of NKC” value (3T3-SV40 fibroblasts) is given as “reduced significantly”.

In the case of `C=C1/C(=C\C=C2/CCC[C@]3(C)[C@@H]([C@H](C)CCCC(C)(C)O)CC[C@@H]23)C[C@@H](O)C[C@@H]1O` [1,25 D3, 1,25-dihydroxyvitamin D3], the tumor growth [8] is given as “reduced rate of tumor growth”.

For `[Se]` [Selenium], the “counts of NKC and T lymphocytes expressing both sub-units of IL2R” value [9] is listed as “increased counts”, the “NKC Activity” value [2] is listed as “+” and the Anti-Cancer (cancer cells) is listed as “+”.

In the case of `CC(=O)N[C@@H](CS)C(=O)O` [NAC, N-Acetyl-Cysteine], the decrease in metastases (metastases) is listed as 63%, the NK cell activity (NK cell activity [1]) is listed as “enhancement” and the “susceptibility of transformed and embryonic cells to NK cell activity” value ([10]; 10 mM) is listed as “loss of susceptibility”. For the same compound, the “susceptibility of murine embryonic fibroblasts (MEFs) to NK cell activity” value ([10]; pretreated with 10 mM) was “lose their susceptibility”, the “NKC Activity” value [2] was “+” and the “response to NK cell activity after removal of the antioxidant” value (3T3-SV40 fibroblasts; 18-20 h after NAC removal) was “resistance to NK cell activity”. The “sensitivity to lysis by NKC mouse splenocytes” value (3T3-SV40 fibroblasts; 18-20 h cultivation, 10 mM) was “did not change their sensitivity” and the “fibroblast sensitivity to lytic activity of NKC” value (3T3-SV40 fibroblasts) was “did not change it”.

For `Oc1ccc(C=Cc2cc(O)cc(O)c2)cc1` [Resveratrol], the “NKC Activity” value [2] is listed as “+” and the Anti-Cancer (cancer cells) is listed as “+”.

For `O=C1O[C@H]([C@@H](O)CO)C(O)=C1O` [Vitamin C, Ascorbic acid], the NK cell activity (NK cell activity [1]) is given as “enhancement”, the “NKC Activity” value [2] is given as “+” and the “NKC function of survivors versus baseline” value (end-stage cancers; 16 survivors, p<0.01) is given as “significantly higher”. The patients still alive (end-stage cancers; as of a mean of 6 months) was 16/20, the “increase of NK cell cytotoxicity” value (tumor cells) was 285% and the “mutagenic lesions; negative effects on NK cell activity, apoptosis or cell cycle” value [11] was “did not induce mutagenic lesions nor had negative effects”. The Anti-Cancer (cancer cells) was “+”.

In the case of `COc1cc(/C=C/C(=O)CC(=O)/C=C/c2ccc(O)c(OC)c2)ccc1O` [Curcumin], the “NKC Activity” value [2] is listed as “+”.

For Vitamin E, the NK cell function (NK cell function) is given as “enhanced”, the NK cell activity (NK cell activity [1]) is given as “enhancement” and the “NKC Activity” value [2] is given as “+”. For the same compound, the Anti-Cancer (cancer cells) was “+”.
